Patent US6375979B2 (Somerset Pharmaceuticals, Inc., priority 1995, dated 2002)
“And” between values parts separate entries of the source, which are not always exact repeats. Equal values may be shown once. Read-outs that look alike come from different tables or passages of the source.

Key:
[1] = system: cultured rat mesencephalic cells; assay: Medium change (glutamate receptor dependent) model of cell death: TH positive cells; conditions: medium change model
Method: In these experiments, cells were plated and allowed to stabilize for several days.

MAO-A [2] = target: T1, MAO-A (Rattus norvegicus, UniProt P21396)
T1 sequence (P21396 1-526): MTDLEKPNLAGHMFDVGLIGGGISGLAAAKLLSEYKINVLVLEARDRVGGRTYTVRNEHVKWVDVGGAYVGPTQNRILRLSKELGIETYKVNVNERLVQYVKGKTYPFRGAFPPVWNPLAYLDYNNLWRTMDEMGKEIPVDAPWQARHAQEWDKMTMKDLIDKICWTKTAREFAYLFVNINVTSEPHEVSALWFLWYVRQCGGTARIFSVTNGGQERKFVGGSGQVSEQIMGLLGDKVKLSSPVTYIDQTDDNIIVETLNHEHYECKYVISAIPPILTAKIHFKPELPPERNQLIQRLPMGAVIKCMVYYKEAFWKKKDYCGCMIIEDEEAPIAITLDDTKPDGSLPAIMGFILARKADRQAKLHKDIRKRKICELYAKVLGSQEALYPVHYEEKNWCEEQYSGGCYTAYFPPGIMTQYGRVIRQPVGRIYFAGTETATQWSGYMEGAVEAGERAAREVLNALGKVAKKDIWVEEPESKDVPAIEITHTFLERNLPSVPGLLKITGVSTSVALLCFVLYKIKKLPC

[3] = target: T2, dopamine re-uptake system (Rattus norvegicus, UniProt P23977); assay: Inhibition of dopamine re-uptake in rat neostriatal synaptosome preparation; assay type: biochemical
T2 construct: (synaptosome preparation) was obtained form fresh rat neostriatal brain tissue; from tissue; host or cells: rat neostriatum, synaptosome preparation
T2 sequence (P23977 whole entry): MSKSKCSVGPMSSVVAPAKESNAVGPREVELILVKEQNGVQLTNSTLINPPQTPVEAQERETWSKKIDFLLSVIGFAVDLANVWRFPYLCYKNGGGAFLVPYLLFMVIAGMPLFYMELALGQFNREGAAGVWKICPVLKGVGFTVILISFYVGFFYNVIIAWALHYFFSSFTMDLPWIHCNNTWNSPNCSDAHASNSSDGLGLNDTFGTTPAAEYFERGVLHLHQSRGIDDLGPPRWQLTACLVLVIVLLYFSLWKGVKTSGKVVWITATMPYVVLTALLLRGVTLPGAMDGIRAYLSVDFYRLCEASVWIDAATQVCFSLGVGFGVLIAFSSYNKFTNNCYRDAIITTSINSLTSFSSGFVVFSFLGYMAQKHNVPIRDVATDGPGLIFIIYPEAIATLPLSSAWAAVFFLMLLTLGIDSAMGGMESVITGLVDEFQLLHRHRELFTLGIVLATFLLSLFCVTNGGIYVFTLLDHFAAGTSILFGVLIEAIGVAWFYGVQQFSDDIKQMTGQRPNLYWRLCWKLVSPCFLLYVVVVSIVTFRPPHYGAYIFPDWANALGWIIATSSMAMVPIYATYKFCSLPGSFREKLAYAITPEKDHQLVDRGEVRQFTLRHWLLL
Method: An in vitro nerve terminal preparation (synaptosome preparation) was prepared using fresh rat neostriatal tissue.
FIG. 19: Determination of IC50 Values for Inhibition of Dopamine Re-Uptake.
An in vitro nerve-terminal preparation (synaptosome preparation) was obtained form fresh rat neostriatal brain tissue. Transport by dopamine nerve-terminals was estimated by measuring the uptake of tritiated dopamine.

MAO-B [4] = target: T3, MAO-B (Cavia porcellus, UniProt P58028); assay: MAO-B inhibition in guinea pig hippocampal homogenates in vitro; assay type: biochemical; conditions: read-out: MAO-B % Inhibition x ± SEM
T3 construct: by human platelets and/or guinea pig hippocampal homogenates; from tissue; host or cells: guinea pig hippocampus homogenate
T3 sequence (P58028 1-520): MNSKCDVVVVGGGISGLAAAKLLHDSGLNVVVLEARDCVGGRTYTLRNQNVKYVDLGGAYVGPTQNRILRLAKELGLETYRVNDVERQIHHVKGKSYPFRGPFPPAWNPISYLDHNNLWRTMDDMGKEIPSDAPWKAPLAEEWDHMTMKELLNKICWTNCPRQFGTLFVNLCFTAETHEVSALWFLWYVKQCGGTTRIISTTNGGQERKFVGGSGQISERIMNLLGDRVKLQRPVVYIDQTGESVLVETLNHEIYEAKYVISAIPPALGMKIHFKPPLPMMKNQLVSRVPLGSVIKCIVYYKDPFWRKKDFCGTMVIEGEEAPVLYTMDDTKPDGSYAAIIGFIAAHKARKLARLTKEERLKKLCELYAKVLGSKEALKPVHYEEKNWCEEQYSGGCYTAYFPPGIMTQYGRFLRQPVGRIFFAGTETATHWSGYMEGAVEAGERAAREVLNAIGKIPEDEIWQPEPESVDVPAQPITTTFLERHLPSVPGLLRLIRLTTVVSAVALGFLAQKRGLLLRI
Description: Human platelet MAO is comprised exclusively of the type-B isoform of the enzyme. […] The present study also examined the two enantiomers of DMS for inhibitory activity with respect to the MAO-A and MAO-B in guinea pig hippocampal tissue. Guinea pig brain tissue is an excellent animal model for studying brain dopamine metabolism, the enzyme kinetics of the multiple forms of MAO and the inhibitory properties of novel agents that interact with these enzymes. The multiple forms of MAO in this animal species show similar kinetic properties to those found in human brain tissue. Finally, the test agents were administered to guinea pigs and the extent to which they might act as inhibitors of brain MAO in vivo was assessed.
In vitro: The test system utilized the in vitro conversion of specific substrates of MAO-A (^14C-serotonin) and MAO-B (^14C-phenylethylamine) by human platelets and/or guinea pig hippocampal homogenates. […] A percent inhibition was calculated from these values.

MAO-B [5] = target: T3, MAO-B; assay: In vivo brain MAO-B inhibition in guinea pig hippocampus after 5 days of administration
Method: FIG. 20: In Vivo MAO-B Inhibition in Guinea Pig Hippocampus. […] Animals were then sacrificed and the MAO-B activity in the hippocampus portion of the brain was determined. […] The plots were used to estimate the ID50 dosage for each agent.
Each enantiomer of DMS was administered in vivo by subcutaneous injection once a day for five consecutive days, and inhibition of brain MAO-B activity was then determined.

MAO-A [6] = target: T4, MAO-A (Cavia porcellus, UniProt H0UVA2); assay: In vivo MAO-A inhibition in guinea pig cortex (hippocampus) after 5 s.c. treatments; conditions: 10 mg/kg, highest dose tested
T4 sequence (H0UVA2 1-461): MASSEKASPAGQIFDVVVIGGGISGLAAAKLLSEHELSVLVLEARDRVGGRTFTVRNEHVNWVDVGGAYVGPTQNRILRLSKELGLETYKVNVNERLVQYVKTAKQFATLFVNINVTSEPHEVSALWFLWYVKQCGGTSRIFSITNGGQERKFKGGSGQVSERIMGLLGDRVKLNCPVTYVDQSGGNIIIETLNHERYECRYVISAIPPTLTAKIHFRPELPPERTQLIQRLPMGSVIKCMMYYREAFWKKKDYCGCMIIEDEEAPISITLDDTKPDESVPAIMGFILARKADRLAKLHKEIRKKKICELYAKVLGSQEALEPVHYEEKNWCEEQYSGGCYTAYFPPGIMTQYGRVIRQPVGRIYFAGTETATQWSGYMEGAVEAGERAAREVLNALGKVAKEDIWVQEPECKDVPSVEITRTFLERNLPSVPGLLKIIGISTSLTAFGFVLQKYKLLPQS

Compound: desmethylselegiline [R(−)DMS]
- TH Immunochemistry, % control, Mean ([1]; 0.5 μM): 123.9%
- TH Immunochemistry, % control, individual cultures ([1]; 0.5 μM): 129.0% and 117.6% and 125.2%
- TH Immunochemistry, cells/cm^2, Mean ([1]; 0.5 μM): 335.63 cells/cm^2
- TH Immunochemistry, cells/cm^2, individual cultures ([1]; 0.5 μM): 340.0 cells/cm^2 and 310.0 cells/cm^2 and 330.0 cells/cm^2 and 362.5 cells/cm^2
- TH Immunochemistry, % control, Mean ([1]; 5.0 μM): 132.1%
- TH Immunochemistry, % control, individual cultures ([1]; 5.0 μM): 122.3% and 129.9% and 137.5% and 138.5%
- TH Immunochemistry, cells/cm^2, Mean ([1]; 5.0 μM): 348.13 cells/cm^2
- TH Immunochemistry, cells/cm^2, individual cultures ([1]; 5.0 μM): 322.5 cells/cm^2 and 342.5 cells/cm^2 and 362.5 cells/cm^2 and 365.0 cells/cm^2
- TH Immunochemistry, % control, Mean ([1]; 50 μM): 144.9%
- TH Immunochemistry, % control, individual cultures ([1]; 50 μM): 117.6% and 167.9% and 144.1% and 149.8%
- TH Immunochemistry, cells/cm^2, Mean ([1]; 50 μM): 381.88 cells/cm^2
- TH Immunochemistry, cells/cm^2, individual cultures ([1]; 50 μM): 310.0 cells/cm^2 and 442.5 cells/cm^2 and 380.0 cells/cm^2 and 395.0 cells/cm^2
- inhibition (MAO-A [2]; 0.3 µM): 0%
- inhibition (MAO-A [2]; 1 μM): 0.7%
- inhibition (MAO-A [2]; 3 µM): 4.1%
- inhibition (MAO-A [2]; 10 μM): 11.8%
- inhibition (MAO-A [2]; 100 μM): 56.1%
- 3H-Dopamine uptake, % Reduction x ± SEM ([3]; 1 μM): 10.7 ± 2.8%
- 3H-Dopamine uptake, % Reduction x ± SEM ([3]; 10 μM): 20.1 ± 3.1%
- 3H-Dopamine uptake, % Reduction x ± SEM ([3]; 100 μM): 11.5 ± 1.0%
- 3H-Dopamine uptake, % Reduction x ± SEM ([3]; 100 μM (last row of each agent)): 51.3 ± 2.6%

Compound: C#CCN[C@@H](C)Cc1ccccc1 (single isomer, unassigned) [S(+)DMS, ent-desmethylselegiline]
- inhibition at 1 µM (MAO-B [4]): 44.4 ± 6.4%
- times less potent than selegiline, preliminary studies (MAO-B [5]; brain MAO-B in vivo): about 10 times
- times less potent than selegiline as an inhibitor of MAO-B, more recent studies (MAO-B [5]; brain MAO-B in vivo, larger group of animals): about 50 times
- ED50 (MAO-B [5]; guinea pig, sc, read-out: ID50 for MAO-B in Guinea Pig Hippocampal Cortex, once a day for 5 days, subcutaneous, larger group of animals, FIG. 20): ~0.5 mg/kg
- times more potent than either selegiline or R(−)DMS at inhibiting dopamine re-uptake [3]: 4-5 times
- 3H-Dopamine uptake, % Reduction x ± SEM ([3]; 1 μM): 24.1 ± 11.7%
- 3H-Dopamine uptake, % Reduction x ± SEM ([3]; 10 μM): 47.0 ± 3.1%
- 3H-Dopamine uptake, % Reduction x ± SEM ([3]; 100 μM): 15.3 ± 7.7%
- inhibition of MAO-A activity in vivo (MAO-A [6]): did not cause any observable inhibition
